Source: article PMC12195231, “Afil, a Lectin from Aplysina fistularis, Exhibits Antibiofilm and Synergistic Antibacterial Activity Against Resistant Bacteria” (Microorganisms, 2025)

Molecular target: T1, AfiL
T1 construct: native, purified from sponge tissue (ammonium sulfate, Sepharose 4B, lactose elution); 70 kDa disulfide-linked dimer, ~30 kDa subunits; internal stretch […]
Assay: isothermal titration calorimetry
Type: binding, Aplysina fistularis
Conditions: TBS (20 mM Tris-HCl pH 7.6, 150 mM NaCl), 25 °C; one-set-of-sites model

Kd: 10.2 µM
Structure (SMILES): OC[C@H]1O[C@@H](O[C@H]2[C@H](O)[C@@H](O)C(O)O[C@@H]2CO)[C@H](O)[C@@H](O)[C@H]1O (stereo partly drawn) [D-lactose]
